Results on 8 compounds are retold here after patent US20120065210A1, “SUBSTITUTED HEXAHYDROPYRROLO[1,2-C]IMIDAZOLONES” (priority 2010, published 2012).

For this test, the target named is interaction between p53 and MDM2 proteins (recombinant GST-tagged MDM2, p53 peptide) (Homo sapiens, UniProt Q00987). Kind of test: HTRF assay of inhibition of the p53-MDM2 interaction (GST-MDM2 / biotinylated p53 peptide). Format: binding. The settings on record: bsa: 0.02%. On the procedure:
The ability of the compounds to inhibit the interaction between p53 and MDM2 proteins was measured by an HTRF (homogeneous time-resolved fluorescence) assay in which recombinant GST-tagged MDM2 binds to a peptide that resembles the MDM2-interacting region of p53. Binding of GST-MDM2 protein and p53-peptide (biotinylated on its N-terminal end) is registered by the FRET (fluorescence resonance energy transfer) between Europium (Eu)-labeled anti-GST antibody and streptavidin-conjugated Allophycocyanin (APC).
Add 10 uL diluted compounds (1:5 dilution in reaction buffer) to each well, mix by shaking Add 20 uL biotinylated p53 peptide (180 nM working solution) in reaction buffer to each well and mix on shaker. Incubate at 37° C. for 1 h. Add 20 uL streptavidin-APC and Eu-anti-GST antibody mixture (6 nM Eu-anti-GST and 60 nM streptavidin-APC working solution) in TBS buffer with 0.2% BSA, shake at room temperature for 30 minutes and read using a TRF-capable plate reader at
665 and 615 nm (Victor 5, Perkin ElmerWallac), If not specified, the reagents were purchased from Sigma Chemical Co.
On the technique in general: Time-resolved FRET reads energy transfer from a long-lived donor to a nearby acceptor.

What is called pIC50 is the IC50 on a negative log10 scale, so that one unit is a factor of ten.

pIC50: −log10 of the molar value.

interaction between p53 and MDM2 proteins (recombinant GST-tagged MDM2, p53 peptide), sequence (Q00987 whole entry): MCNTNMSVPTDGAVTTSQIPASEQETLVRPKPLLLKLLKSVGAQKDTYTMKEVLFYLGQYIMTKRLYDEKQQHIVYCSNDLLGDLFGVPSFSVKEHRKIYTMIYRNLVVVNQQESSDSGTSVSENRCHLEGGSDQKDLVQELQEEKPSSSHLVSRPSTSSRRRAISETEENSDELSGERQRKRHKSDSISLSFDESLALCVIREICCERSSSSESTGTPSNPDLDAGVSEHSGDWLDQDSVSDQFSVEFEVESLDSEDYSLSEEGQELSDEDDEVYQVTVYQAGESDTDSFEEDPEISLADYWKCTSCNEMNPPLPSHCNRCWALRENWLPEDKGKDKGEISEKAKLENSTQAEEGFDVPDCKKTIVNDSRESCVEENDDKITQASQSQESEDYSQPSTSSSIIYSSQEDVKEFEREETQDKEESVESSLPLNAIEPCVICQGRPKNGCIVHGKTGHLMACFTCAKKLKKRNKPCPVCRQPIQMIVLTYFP

Regarding `CC(C)(C)C[C@@H]1N2[C@H](CC3CCCCC3)N(c3ccc(C(=O)O)cc3)C(=O)[C@H]2[C@H](c2cccc(Cl)c2F)[C@@]1(C#N)c1ccc(Cl)cc1F` (racemic) [Example 35, rac-4-[(3S,5S,6R,7S,7aR)-7-(3-chloro-2-fluoro-phenyl)-6-(4-chloro-2-fluoro-phenyl)-6-cyano-3-cyclohexylmethyl-5-(2,2-dimethyl-propyl)-1-oxo-tetrahydro-pyrrolo[1,2-c]imidazol-2-yl]-benzoic acid], the negative logarithm of the IC50 (pIC50) was 7.82. On to `COc1cc(N2CN3[C@@H](CC(C)(C)C)[C@](C#N)(c4ccc(Cl)cc4F)[C@@H](c4cccc(Cl)c4F)[C@@H]3C2=O)ccc1C(=O)O` [Example 1, 4-[(5S,6R,7S,7aR)-7-(3-chloro-2-fluoro-phenyl)-6-(4-chloro-2-fluoro-phenyl)-6-cyano-5-(2,2-dimethyl-propyl)-1-oxo-tetrahydro-pyrrolo[1,2-c]imidazol-2-yl]-2-methoxy-benzoic acid], for which the pIC50 was 8.10. As to `CC(C)(C)C[C@@H]1N2CN(c3ccc(C(=O)O)cc3)C(=O)[C@H]2[C@H](c2cccc(Cl)c2F)[C@@]1(C#N)c1ccc(Cl)cc1F` [Example 2, 4-[(5S,6R,7S,7aR)-7-(3-chloro-2-fluoro-phenyl)-6-(4-chloro-2-fluoro-phenyl)-6-cyano-5-(2,2-dimethyl-propyl)-1-oxo-tetrahydro-pyrrolo[1,2-c]imidazol-2-yl]-benzoic acid], the pIC50 is 8.10. Turning to `COc1cc(C(=O)O)ccc1N1CN2[C@@H](CC(C)(C)C)[C@](C#N)(c3ccc(Cl)cc3F)[C@@H](c3cccc(Cl)c3F)[C@@H]2C1=O` [Example 3, 4-[(5S,6R,7S,7aR)-7-(3-chloro-2-fluoro-phenyl)-6-(4-chloro-2-fluoro-phenyl)-6-cyano-5-(2,2-dimethyl-propyl)-1-oxo-tetrahydro-pyrrolo[1,2-c]imidazol-2-yl]-3-methoxy-benzoic acid], the pIC50 is 7.89.

For `CC(C)(C)C[C@@H]1N2CN(CC(=O)O)C(=O)[C@H]2[C@H](c2cccc(Cl)c2F)[C@@]1(C#N)c1ccc(Cl)cc1F` [Example 4, [(5S,6R,7S,7aR)-7-(3-chloro-2-fluoro-phenyl)-6-(4-chloro-2-fluoro-phenyl)-6-cyano-5-(2,2-dimethyl-propyl)-1-oxo-tetrahydro-pyrrolo[1,2-c]imidazol-2-yl]-acetic acid], the pIC50 was 8.00. `CC(C)(C)C[C@@H]1N2CN(c3ccc(C(=O)O)cc3O)C(=O)[C@H]2[C@H](c2cccc(Cl)c2F)[C@@]1(C#N)c1ccc(Cl)cc1F` [Example 6, 4-[(5S,6R,7S,7aR)-7-(3-chloro-2-fluoro-phenyl)-6-(4-chloro-2-fluoro-phenyl)-6-cyano-5-(2,2-dimethyl-propyl)-1-oxo-tetrahydro-pyrrolo[1,2-c]imidazol-2-yl]-3-hydroxy-benzoic acid]: the pIC50 was 7.89. With `CC(C)(C)C[C@@H]1N2CN(c3ccc(C(=O)O)c(C(F)(F)F)c3)C(=O)[C@H]2[C@H](c2cccc(Cl)c2F)[C@@]1(C#N)c1ccc(Cl)cc1F` [Example 7, 4-[(5S,6R,7S,7aR)-7-(3-chloro-2-fluoro-phenyl)-6-(4-chloro-2-fluoro-phenyl)-6-cyano-5-(2,2-dimethyl-propyl)-1-oxo-tetrahydro-pyrrolo[1,2-c]imidazol-2-yl]-2-trifluoromethyl-benzoic acid] the figure was 7.68; with `C=CCC[C@@H]1N(c2ccc(C(=O)O)c(OC)c2)C(=O)[C@H]2[C@H](c3cccc(Cl)c3F)[C@@](C#N)(c3ccc(Cl)cc3F)[C@H](CC(C)(C)C)N12` [Example 41, 4-[(3S,5S,6R,7S,7aR)-3-but-3-enyl-7-(3-chloro-2-fluoro-phenyl)-6-(4-chloro-2-fluoro-phenyl)-6-cyano-5-(2,2-dimethyl-propyl)-1-oxo-tetrahydro-pyrrolo[1,2-c]imidazol-2-yl]-2-methoxy-benzoic acid], 8.05.
